Source: patent US8378117B2 (priority 2005, dated 2013)
pEC50, pIC50: −log10 of the molar value.

Assays:
[1] = target: T1, CB1 receptor (Homo sapiens, UniProt P21554); assay: Binding assay for CB1 agonists or inverse agonists (SK-N-MC membranes, [3H]-CP-55,940); details: for pIC50: Cannabinoid CB1 Receptor Binding IC50, calculated by linear regression from percent inhibition at various test concentrations; for inhibition at 1 µM: read-out: CB1 receptor binding percent inhibition, test concentration 1 μM (footnote 1)
T1 construct: expressed in transfected cells
In short: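 Radioligand displacement: [3H]-CP-55,940 at […], 90 min at 30° C, pH 7.5 Tris buffer with 0.5 mg/mL fatty-acid-free BSA, using semi-purified membranes of human-CB1-transfected SK-N-MC cells. Bound counts collected on GF/C filters, 10 uM WIN 55,212 for non-specific; IC50 from percent inhibition over several concentrations.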

[2] = target: T1, CB1 receptor; assay: cell-based; details: CB1 Receptor Functional Agonist EC50, SK-N-MC cells, forskolin induced β-galactosidase activity
In short: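 Read-out is forskolin-driven CRE-β-gal reporter activity in stably transfected human-CB1 SK-N-MC cells, normalised to vehicle (100%); agonism lowers, inverse agonism raises signal. Values are EC50 (linear regression, multiple concentrations) or % change at one concentration.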

[3] = system: Male CD-1 mice; assay: Oil of mustard induced colitis model; type: in vivo
Excerpt: In the distal colon, the oil of mustard colitis model is characterized by a discontinuous pattern of mucosal epithelial damage, submucosal edema, infiltration of inflammatory cells (including macrophages, neutrophils and lymphocytes) into the mucosa and submucosa, increased wet weight of the colon, shrinkage of the colon length, diarrhea and apparent inflammation (see, Kimball E. S., Palmer J. M., D'Andrea M. R., Homby P. J. and Wade P. R., Acute colitis induction by oil of mustard results in later development of an IBS-like accelerated upper GI transit in mice, Am. J Physiol. Gastrointest. Liver Physiol., 2005, 288: G 1266-1273).
Male CD-1 mice (Charles River Laboratories, Kingston, N.C.) (9-11 weeks old) and fresh oil of mustard (OM) (allyl isothiocyanate, 98% purity, Sigma-Aldrich St. Louis, Mo.) were used.
The mice (9 per treatment group) were briefly anesthetized with ketamine/xylasine (Sigma, St. Louis, Mo.) and a solution of 0.5% OM in 30% ethanol (50 μL) was administered intracolonically (to a depth of 4 cm) via syringe (equipped with a ball-tipped 22 G needle).
A test compound was orally administered one day prior to colitis induction for assessing a prophylactic regimen or one day post-induction for assessing a therapeutic regimen. A test compound was orally administered daily thereafter. Two days after OM administration, the last test compound dose was administered.
Three days after OM administration, the animals were sacrificed. The colons were resected, examined for signs of inflammation, weighed after removing fecal contents and the length from the aboral end of the cecum to the anus was measured. The fecal contents were examined for signs of diarrhea. The distal colon between the 1st and the 4th centimeter was removed and placed in 10% neutral buffered formalin for histological analysis.
The macroscopic observations of colon inflammation (a measure of colon damage), colon weight and length and stool consistency and appearance were assigned a score and used to evaluate colitis severity.
The four observation scores for each colon were combined, whereby a combined score of 0 represents a normal colon and a combined score of 15 represents a maximally affected colon. Statistical analyses were performed in Graphpad Prism 4.0 using ANOVA.
Histological analyses of tissues consisted of staining paraffin-embedded tissue sections with hematoxylin-eosin dye. The tissues were examined using light microscopy by an investigator who was blinded to the sample groups.
The microscopic observations of epithelial damage, cellular infiltration and damage or alteration of smooth muscle architecture (a measure of muscle damage) were assigned a score and used to evaluate colitis severity.
The scores for each colon were combined, whereby a combined score of 0 represents a normal colon and a combined score of 9 represents a maximally affected colon. Statistical analyses were performed in Graphpad Prism 4.0 using ANOVA.
The Macroscopic Score and Microscopic Score results for each treatment group in the prophylactic and therapeutic regimens were each combined into a mean score and expressed as % inhibition of colitis (% Inh). Test (#) represents the number of experiments at each dose level.

[4] = target: T2, CB2 receptor (Homo sapiens, UniProt P34972); assay: Functional cell-based assay, CB2 receptor mediated change in CRE β-gal expression (SK-N-MC cells); details: CB2 Receptor Functional Agonist EC50, forskolin induced β-galactosidase activity, SK-N-MC cells
T2 construct: expressed in transfected cells
Excerpt: The CB1 and CB2 receptors are G-protein coupled receptors (GPCR), which influence cell function via the Gi-protein. These receptors modulate the activity of intracellular adenylate cyclase, which in turn produces the intracellular signal messenger cyclic-AMP (cAMP).
At baseline, or during non-ligand bound conditions, these receptors are constitutively active and tonically suppress adenylate cyclase activity. The binding of an agonist causes further receptor activation and produces additional suppression of adenylate cyclase activity. The binding of an inverse agonist inhibits the constitutive activity of the receptors and results in an increase in adenylate cyclase activity.
By monitoring intracellular adenylate cyclase activity, the ability of compounds to act as agonists or inverse agonists can be determined.
Test compounds were evaluated in SK-N-MC cells which, using standard transfection procedures, were stably transfected with human cDNA for pcDNA3-CRE β-gal and pcDNA3 CB1 receptor (human) or pcDNA3 CB2 receptor (human). By expressing CRE β-gal, the cells produced β-galactosidase in response to CRE promoter activation by cAMP. Cells expressing CRE β-gal and either the human CB1 or CB2 receptor will produce less β-galactosidase when treated with a CB1/CB2 agonist and will produce more β-galactosidase when treated with a CB1/CB2 inverse agonist.
The cells were grown in 96-well plates under standard cell culture conditions at 37° C. in a 5% CO2 atmosphere and culture media (wherein the media was supplemented with 2 mM L-glutamine, […] sodium pyruvate, 10% FBS (fetal bovine serum) and antibiotics).
For cells expressing CRE β-gal and the CB2 receptor, CB2 agonists reduced β-galactosidase activity in a dose-dependent manner and CB2 inverse agonists increase β-galactosidase activity in a dose-dependent manner.
The change in forskolin induced β-galactosidase activity was determined by setting a vehicle treated cell's activity value at 100% and expressing the β-galactosidase activity measured in a corresponding compound treated cell as a percent of the vehicle treated cell activity.
The EC50 value for functional activity for compounds tested was calculated by linear regression and was obtained from studies in which varying compound concentrations were used.

[5] = target: T2, CB2 receptor; assay: Binding assay for CB2 agonists or inverse agonists (SK-N-MC membranes, [3H]-CP-55,940)
In short: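 IC50 came from percent-inhibition data over several compound concentrations, fitted by linear regression. Binding used semi-purified membranes of human CB2-transfected SK-N-MC cells, 90 min at 30 °C, pH 7.5 Tris-HCl with MgCl2, EDTA and BSA, then filtration and scintillation counting.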

[6] = test concentration 0.2 μM (footnote 2), 0.2 µM
[7] = Therapeutic Regimen, 5 mg/kg oral, 5 mg/kg
[8] = Prophylactic Regimen, 2.5 mg/kg oral
[9] = Prophylactic Regimen, 5 mg/kg oral
[10] = Therapeutic Regimen, 5 mg/kg oral

T1 sequence (P21554 whole entry): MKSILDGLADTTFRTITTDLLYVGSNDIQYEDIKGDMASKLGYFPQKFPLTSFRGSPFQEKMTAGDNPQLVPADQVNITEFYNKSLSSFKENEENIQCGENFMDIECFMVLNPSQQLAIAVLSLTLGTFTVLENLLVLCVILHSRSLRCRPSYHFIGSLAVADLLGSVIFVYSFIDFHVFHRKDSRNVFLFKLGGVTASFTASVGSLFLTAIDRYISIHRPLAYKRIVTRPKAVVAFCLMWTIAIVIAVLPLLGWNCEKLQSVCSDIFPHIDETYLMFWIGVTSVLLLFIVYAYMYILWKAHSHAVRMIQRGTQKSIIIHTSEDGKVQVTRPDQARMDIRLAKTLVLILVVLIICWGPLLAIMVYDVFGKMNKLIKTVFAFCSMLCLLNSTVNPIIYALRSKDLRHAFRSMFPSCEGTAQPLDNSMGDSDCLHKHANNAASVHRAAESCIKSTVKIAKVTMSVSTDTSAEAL
T2 sequence (P34972 whole entry): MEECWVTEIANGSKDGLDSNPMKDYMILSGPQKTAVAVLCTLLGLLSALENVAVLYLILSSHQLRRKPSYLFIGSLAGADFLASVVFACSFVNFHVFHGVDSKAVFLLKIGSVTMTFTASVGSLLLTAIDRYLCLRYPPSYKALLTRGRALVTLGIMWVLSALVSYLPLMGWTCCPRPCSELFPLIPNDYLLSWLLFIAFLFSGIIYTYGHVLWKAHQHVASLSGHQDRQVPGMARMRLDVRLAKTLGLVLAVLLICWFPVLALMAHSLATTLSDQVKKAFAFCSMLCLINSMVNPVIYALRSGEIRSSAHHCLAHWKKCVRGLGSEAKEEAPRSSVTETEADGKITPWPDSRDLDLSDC

| Compound | pIC50 [1] | CB1 receptor binding percent inhibition [1, 6] | pEC50 [2] | % Inh (Macro), % inhibition of colitis, macroscopic score [3, 7] [%] | CB2 receptor binding percent inhibition [5, 6] | inhibition at 1 µM [1] [%] | % Inh (Macro), % inhibition of colitis, macroscopic score [3, 8] [%] | % Inh (Macro), % inhibition of colitis, macroscopic score [3, 9] [%] | % Inh (Macro), % inhibition of colitis, macroscopic score [3, 10] [%] | CB2 receptor binding percent inhibition ([5]; test concentration not stated) [%] | also measured |
| --- | --- | --- | --- | --- | --- | --- | --- | --- | --- | --- | --- |
| O=C(N[C@@H](CO)c1ccccc1)c1n[nH]c2c1CCCCC2Cc1cccc(Cl)c1 (stereo in doubt) [Cpd 229, (8R*)-8-(3-chloro-benzyl)-1,4,5,6,7,8-hexahydro-cycloheptapyrazole-3-carboxylic acid [(1R)-2-hydroxy-1-phenyl-ethyl]-amide] | 7.22 | 73% | 7.22 | 56.9 ± 11.6 | 95% |  |  |  |  |  | pEC50 [4]: 8.70; pIC50 ([5]; Cannabinoid CB2 Receptor Binding IC50, calculated by linear regression from percent inhibition at various test concentrations): 7.70 |
| C[C@H](NS(=O)(=O)/C=C/c1n[nH]c2c1CCCCC2Cc1cccc(F)c1)c1ccccc1 (stereo partly drawn) [Cpd 96, (2E)-2-[8-(3-fluoro-benzyl)-1,4,5,6,7,8-hexahydro-cycloheptapyrazol-3-yl]-ethenesulfonic acid [(1S)-1-phenyl-ethyl]-amide] |  |  |  |  |  | 0 | 8.0 ± 16.7 | 10.8 ± 13.4 | 7.6 ± 11.5 | 72 | inhibition at 0.015 µM ([5]; test concentration 0.015 μM (footnote 7), read-out: CB2 receptor binding percent inhibition): 50%; inhibition at 1 µM ([5]; test concentration 1 μM (footnote 1), read-out: CB2 receptor binding percent inhibition): 94% |
| C[C@H](NC(=O)c1nn(-c2cc(Cl)ccc2Cl)c2c1CCCC/C2=C\c1ccc(Cl)cc1)c1ccccc1 [Cpd 198, (8E)-8-(4-chloro-benzylidene)-1-(2,5-dichloro-phenyl)-1,4,5,6,7,8-hexahydro-cycloheptapyrazole-3-carboxylic acid [(1S)-1-phenyl-ethyl]-amide] | 7.70 |  | 7.70 |  |  |  |  |  | 41.0 ± 17 |  | inhibition at 0.2 µM ([1]; read-out: CB1 receptor binding percent inhibition): 87%; inhibition at 0.2 µM ([5]; read-out: CB2 receptor binding percent inhibition, test concentration 0.2 μM (footnote 2)): 68% |
| O=C(N[C@@H](CO)c1ccccc1)c1n[nH]c2c1CCCCC2Cc1cccc(Cl)c1 (stereo in doubt) [Cpd 228, (8S*)-8-(3-chloro-benzyl)-1,4,5,6,7,8-hexahydro-cycloheptapyrazole-3-carboxylic acid [(1R)-2-hydroxy-1-phenyl-ethyl]-amide] |  | ^(2)0% |  | 51.7 ± 13.2 | ^(2)45% |  |  |  |  |  |  |
| C[C@H](NS(=O)(=O)/C=C/c1n[nH]c2c1CCCCC2Cc1ccc(F)cc1)c1ccccc1 (stereo partly drawn) [Cpd 108, (2E)-2-[8-(4-fluoro-benzyl)-1,4,5,6,7,8-hexahydro-cycloheptapyrazol-3-yl]-ethenesulfonic acid [(1S)-1-phenyl-ethyl]-amide] |  |  |  |  |  | 55 | 51.2 ± 19.1 | 13.4 ± 13.3 |  | 100 | inhibition at 0.5 µM ([1]; read-out: CB1 receptor binding percent inhibition, test concentration 0.5 μM (footnote 10)): 33%; CB1 receptor binding percent inhibition ([1]; test concentration not stated): 44% |
